# Results taken from US6610677B2, “Pyrazole compounds useful as protein kinase inhibitors” (Vertex Pharmaceuticals Incorporated, priority 2000, dated 2003).
# Target: T1, GSK-3β (AA 1-420) (Homo sapiens, UniProt P49841)
# T1 construct: GSK-3β (AA 1-420)
# Assay: Ki determination for the inhibition of GSK-3 (coupled enzyme system)
# Type: biochemical
# Conditions: 20 μM ATP, 300 μM peptide, 20 nM GSK-3β, 30° C
# Procedure: Compounds were screened for their ability to inhibit GSK-3β (AA 1-420) activity using a standard coupled enzyme system (Fox et al. (1998) Protein Sci. 7, 2249). Reactions were carried out in a solution containing 100 mM HEPES (pH 7.5), 10 mM MgCl2, 25 mM NaCl, 300 μM NADH, 1 mM DTT and 1.5% DMSO. Final substrate concentrations in the assay were 20 μM ATP (Sigma Chemicals, St Louis, Mo.) and 300 μM peptide (HSSPHQS(PO3H2)EDEEE, American Peptide, Sunnyvale, Calif.). Reactions were carried out at 30° C. and 20 nM GSK-3β. Final concentrations of the components of the coupled enzyme system were 2.5 mM phosphoenolpyruvate, 300 μM NADH, 30 μg/ml pyruvate kinase and 10 μg/ml lactate dehydrogenase.
# An assay stock buffer solution was prepared containing all of the reagents listed above with the exception of ATP and the test compound of interest. The assay stock buffer solution (175 μl) was incubated in a 96 well plate with 5 μl of the test compound of interest at final concentrations spanning 0.002 μM to 30 μM at 30° C. for 10 min. Typically, a 12 point titration was conducted by preparing serial dilutions (from 10 mM compound stocks) with DMSO of the test compounds in daughter plates. The reaction was initiated by the addition of 20 μl of ATP (final concentration 20 μM). Rates of reaction were obtained using a Molecular Devices Spectramax plate reader (Sunnyvale, Calif.) over 10 min at 30° C. The Ki values were determined from the rate data as a function of inhibitor concentration.
# T1 sequence (P49841 whole entry, the tested form may be a part): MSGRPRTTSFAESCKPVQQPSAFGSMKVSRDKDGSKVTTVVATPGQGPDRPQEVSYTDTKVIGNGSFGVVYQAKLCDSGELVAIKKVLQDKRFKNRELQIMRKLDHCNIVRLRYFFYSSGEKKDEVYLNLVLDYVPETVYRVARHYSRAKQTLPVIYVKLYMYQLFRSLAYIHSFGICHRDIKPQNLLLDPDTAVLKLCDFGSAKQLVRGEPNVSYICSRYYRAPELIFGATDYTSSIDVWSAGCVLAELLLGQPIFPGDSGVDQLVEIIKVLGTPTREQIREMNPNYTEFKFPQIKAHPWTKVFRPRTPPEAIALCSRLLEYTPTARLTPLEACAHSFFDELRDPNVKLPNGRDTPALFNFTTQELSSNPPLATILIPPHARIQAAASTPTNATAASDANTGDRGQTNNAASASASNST
row,Structure (SMILES),Ki
1,"Clc1ccccc1-c1nc2c(c(Nc3n[nH]c4ccccc34)n1)CCC2 [II-116, [2-(2-Chloro-phenyl)-6,7-dihydro-5H-cyclopentapyrimidin-4-yl]-(1H-indazol-3-yl)-amine]",< 0.1 µM
2,"Fc1cccc2c(Nc3nc(-c4ccccc4Cl)nc4c3CCCCC4)n[nH]c12 [II-4, [2-(2-Chloro-phenyl)-6,7,8,9-tetrahydro-5H-cycloheptapyrimidin-4-yl]-(7-fluoro-1H-indazol-3-yl)-amine]",< 0.1 µM
3,"Fc1cc(F)c2[nH]nc(Nc3nc(-c4ccccc4C(F)(F)F)nc4ccccc34)c2c1 [II-71, (5,7-Difluoro-1H-indazol-3-yl)-[2-(2-trifluoromethyl-phenyl)-quinazolin-4-yl]-amine]",< 0.1 µM
4,"Fc1cc(F)c2[nH]nc(Nc3nc(-c4ccccc4C(F)(F)F)nc4c3CCCCCC4)c2c1 [II-121, (5,7-Difluoro-1H-indazol-3-yl)-[2-(2-trifluoromethyl-phenyl)-5,6,7,8,9,10-hexahydro-cyclooctapyrimidin-4-yl]-amine]",< 0.1 µM
5,"O=c1cc2[nH]nc(Nc3nc(-c4ccccc4C(F)(F)F)nc4ccccc34)c2nn1-c1ccccc1 [II-101, (6-Oxo-5-phenyl-5,6-dihydro-1H-pyrazolo[4,3-c]pyridazin-3-yl)-[2-(2-trifluoromethyl-phenyl)-quinazolin-4-yl]-amine]",0.1 to 1 µM
6,"O=C(c1cc(Nc2nc(-c3ccccc3)nc3ccccc23)[nH]n1)N1CCOCC1 [III-97, [5-(Morpholine-4-carbonyl)-2H-pyrazol-3-yl]-(2-phenyl-quinazolin-4-yl)-amine]",1 to 20 µM
7,Cc1cc(C)c2c(Nc3nc(-c4ccccc4C(F)(F)F)nc4ccccc34)n[nH]c2n1 [II-100],1 to 20 µM
8,"FC(F)(F)c1ccccc1-c1nc2c(c(Nc3n[nH]c4ccccc34)n1)CCC2 [II-113, (1H-Indazol-3-yl)-[2-(2-trifluoromethyl-phenyl)-6,7-dihydro-5H-cyclopentapyrimidin-4-yl]-amine]",< 0.1 µM
9,"Cc1nc(Nc2nc(-c3ccccc3C(F)(F)F)nc3ccccc23)n[nH]1 [IX-38, (5-Methyl-2H-[1,2,4]triazol-3-yl)-[2-(2-trifluoromethylphenyl)-quinazolin-4-yl]-amine]",0.1 to 1 µM
10,"Cc1nc(-c2ccccc2Cl)nc(Nc2n[nH]c3c(F)cccc23)c1C [II-30, [2-(2-Chlorophenyl)-5,6-dimethyl-pyrimidin-4-yl]-(7-fluoro-1H-indazol-3-yl)-amine]",< 0.1 µM
11,"Clc1ccccc1-c1nc(Nc2n[nH]c3ccccc23)c2cccnc2n1 [II-110, [2-(2-Chloro-phenyl)-pyrido[2,3-d]pyrimidin-4-yl]-(1H-indazol-3-yl)-amine]",< 0.1 µM
12,"Fc1cc(F)c2[nH]nc(Nc3nc(-c4ccccc4C(F)(F)F)nc4c3CCCC4)c2c1 [II-9, (5,7-Difluoro-1H-indazol-3-yl)-[2-(2-trifluoromethyl-phenyl)-5,6,7,8-tetrahydroquinazolin-4-yl]-amine]",< 0.1 µM
13,"Cc1cccc(NC(=O)c2cc(Nc3nc(-c4ccccc4)nc4ccccc34)[nH]n2)c1 [III-94, (2-Phenyl-quinazolin-4-yl)-(5-m-tolylcarbamoyl-2H-pyrazol-3-yl)-amine]",1 to 20 µM
14,"O=[N+]([O-])c1ccc(-c2nc(Nc3n[nH]c4c(F)cc(F)cc34)c3ccccc3n2)c(Cl)c1 [II-95, [2-(2-Chloro-4-nitro-phenyl)-quinazolin-4-yl]-(5,7-difluoro-1H-indazol-3-yl)-amine]",< 0.1 µM
15,"FC(F)(F)c1ccccc1-c1nc2c(c(Nc3n[nH]c4ccccc34)n1)CCCC2 [II-17, (1H-indazol-3-yl)-[2-(2-trifluoromethyl-phenyl)-5,6,7,8-tetrahydroquinazolin-4-yl]-amine]",< 0.1 µM
16,"FC(F)(F)c1ccccc1-c1nc(Nc2n[nH]c3c(C(F)(F)F)cccc23)c2ccccc2n1 [II-68, (7-Trifluoromethyl-1H-indazol-3-yl)-[2-(2-trifluoromethyl-phenyl)-quinazolin-4-yl]-amine]",1 to 20 µM
17,"Fc1ccc2[nH]nc(Nc3nc(-c4ccccc4)nc4c3CNCC4)c2c1 [IV-36, (5-Fluoro-1H-indazol-3-yl)-(2-phenyl-5,6,7,8-tetrahydro-pyrido[4,3-d]pyrimidin-4-yl)-amine]",0.1 to 1 µM
18,"Cc1cc(Nc2nc(-c3cccc4ccccc34)nc3ccccc23)n[nH]1 [II-208, (5-Methyl-2H-pyrazol-3-yl)-[2-(2-naphthyl-1-yl)-quinazolin-4-yl]-amine]",< 0.1 µM
19,"FC(F)(F)c1ccccc1-c1cc(Nc2n[nH]c3ccccc23)c2ccccc2n1 [Compound V-7, (1H-Indazol-3-yl)-[2-(2-trifluoromethyl-phenyl)-quinolin-4-yl]-amine]",0.1 to 1 µM
20,"FC(F)(F)c1ccccc1-c1nc(Nc2n[nH]c(-c3ccccc3)c2-c2ccccc2)c2ccccc2n1 [II-51, (4,5-Diphenyl-2H-pyrazol-3-yl)-[2-(2-trifluoromethylphenyl)-quinazolin-4-yl]-amine]",1 to 20 µM
21,"Fc1ccc2[nH]nc(Nc3nc(-c4c(Cl)cccc4Cl)nc4ccccc34)c2c1 [II-62, [2-(2,6-Dichloro-phenyl)-quinazolin-4-yl]-(5-fluoro-1H-indazol-3-yl)-amine]",< 0.1 µM
22,"O=c1cc2[nH]nc(Nc3nc(-c4ccccc4)nc4ccccc34)c2nn1-c1ccc(Oc2ccccc2)cc1 [III-139, [6-Oxo-5-(4-Phenoxy-phenyl)-5,6-dihydro-1H-pyrazolo[4,3-c]pyridazin-3-yl]-(2-phenyl-quinazolin-4-yl)-amine]",1 to 20 µM
23,"Fc1ccc2[nH]nc(Nc3nc(-c4ccccc4C(F)(F)F)nc4c3CCCCC4)c2c1 [II-15, (5-Fluoro-1H-indazol-3-yl)-[2-(2-trifluoromethyl-phenyl)-6,7,8,9-tetrahydro-5H-cycloheptapyrimidin-4-yl]-amine]",< 0.1 µM
24,"FC(F)(F)c1ccccc1-c1nc(Nc2n[nH]c3cccnc23)c2ccccc2n1 [II-98, (1H-Pyrazolo[4,3-b]pyridin-3-yl)-[2-(2-trifluoromethyl-phenyl)-quinazolin-4-yl]-amine]",1 to 20 µM
25,"CC1CN(c2nc(Nc3[nH]nc4ccccc34)c3ccccc3n2)CC(C)O1 (stereo not drawn) [III-145, (1H-Indazol-3-yl)-[2-(2,6-dimethyl-morpholin-4-yl)-quinazolin-4-yl]-amine]",1 to 20 µM
26,"Fc1ccc2[nH]nc(Nc3nc(-c4ccccc4C(F)(F)F)nc4c3CCNC4)c2c1 [II-3, (5-Fluoro-1H-indazol-3-yl)-[2-(2-trifluoromethyl-phenyl)-5,6,7,8-tetrahydro-pyrido[3,4-d]pyrimidin-4-yl]-amine]",< 0.1 µM
27,"Fc1cccc2[nH]nc(Nc3nc(-c4ccccc4C(F)(F)F)nc4ccccc34)c12 [II-89, (4-Fluoro-1H-indazol-3-yl)-[2-(2-trifluoromethyl-phenyl)-quinazolin-4-yl]-amine]",1 to 20 µM
28,"Cc1ccc(NC(=O)c2cc(Nc3nc(-c4ccccc4)nc4ccccc34)[nH]n2)cc1 [III-95, (2-Phenyl-quinazolin-4-yl)-(5-p-tolylcarbamoyl-2H-pyrazol-3-yl)-amine]",1 to 20 µM
29,"Fc1cc(F)c2n[nH]c(Nc3nc(-c4ccccc4)nc4ccccc34)c2c1 [III-131, (5,7-Difluoro-1H-indazol-3-yl)-(2-phenyl-quinazolin-4-yl)-amine]",< 0.1 µM
30,"FC(F)(F)c1ccccc1-c1nc2c(c(Nc3n[nH]c4ccccc34)n1)CCCCC2 [II-13, (1H-Indazol-3-yl)-[2-(2-trifluoromethyl-phenyl)-6,7,8,9-tetrahydro-5H-cycloheptapyrimidin-4-yl]-amine]",< 0.1 µM
